A short description of data set [1]: LD50 of Staurosporine (note to Table 5). Particulars: in vivo; species and route not printed in the note.
Data set [2] concerns lymphocytic leukemia P388 tumor. The data set can be described thus: Therapeutic effect on lymphocytic leukemia P388 tumor. The class given is in vivo, male CDF1 mice. On the procedure: Therapeutic effect on lymphocytic leukemia P388 tumor:
Five male CDF1 mice each having a weight of about 22 g were used for each group as test animals, and 1×10^6 cells of lymphocytic leukemia P388 tumor were implanted intraperitoneally in the test animals. 24 hours after implantation, 0.2 ml of a phosphate buffer saline (hereafter referred to as PBS) containing UCN-01 was intraperitoneally administered.
The composition of PBS was 0.8% NaCl, 0.02% KCl, 1.15% Na2 HPO4, […] 0.02% KH2 PO4 (pH 7.0).
For comparison, 0.2 ml of PBS solution containing Staurosporine was intraperitoneally administered 24 hours after the implantation of the tumor cells. Increased life span (T/C) (T: mean survival days of the treated group, C: mean survival days of the control group) is shown in Table 5.

Data set [3] relates to Klebsiella pneumoniae ATCC 10031. The data set can be described thus: Anti-bacterial activity, agar dilution method (MIC). The class given is cell-based. Particulars: ATCC10031, pH 7. As for the experimental part: (§1) The minimum inhibitory concentration (MIC) against various microorganisms is shown below.
(§2) The anti-bacterial activity was measured by the agar dilution method, using a medium (pH 7) prepared by dissolving 3 g of Bacto-Tryptone (manufacturedby Difco Co., Ltd.), 3 g of meat extract, 1 g of yeast extract, 1 g of glucose and 16 g of agar in 1 (of water.
(In agar dilution, organisms are placed on agar that contains the substance at set levels.)

In data set [4] the test system is Staphylococcus aureus ATCC 6538P. The description is as above. The data set is classed as cell-based. The conditions noted are these: ATCC6538P, pH 7. On the procedure:
as §1, §2

The subject of another data set is Escherichia coli ATCC 26. The description is as above. The conditions noted are these: ATCC26, pH 7. The data set is classed as cell-based. On the procedure: as §1, §2
Data set [5] has as its system Bacillus subtilis No. 10707. The description is as above. The conditions noted are these: pH 7. The data set is classed as cell-based. As for the experimental part: as §1, §2
The subject of data set [6] is Shigella sonnei ATCC 9290. The data set is described as above. The data set is classed as cell-based. Particulars: ATCC9290, pH 7. As for the experimental part: as §1, §2
Data set [7] concerns Salmonella typhi ATCC 9992. The description is as above. The class given is cell-based. The conditions noted are these: Salmonella enterica, pH 7. On the procedure:
as §1, §2

The nature of data set [8]: Acute toxicity (LD50), intraperitoneal administration to mice. Particulars: mouse, in vivo, ip. On the procedure: The acute toxicity value (LD50) was 30 mg/kg by intraperitoneal administration to mice.

Each structure is given as a SMILES string. Converted amounts (≈) assume the structure as drawn.

The results in this text go back to patent US4935415A, “UCN-01 and process for production thereof” (priority 1986, dated 1990).

Broadly, the LD50 is the dose expected to kill half of the subjects tested. `CN[C@@H]1C[C@H]2O[C@@](C)([C@@H]1OC)n1c3ccccc3c3c4c(c5c6ccccc6n2c5c31)C(=O)NC4` [Staurosporine, reference compound] showed an LD50 in data set [1] of 6.6 mg/kg. Further, the “Increased Life Span (T/C)” value in data set [2] (1 mg/kg, intraperitoneal, 24 hours after implantation) was found to be 1.10; in data set [2] (2 mg/kg, intraperitoneal, 24 hours after implantation), 1.12; in [2] (4 mg/kg, intraperitoneal, 24 hours after implantation), 1.08.

The term MIC denotes the least concentration at which growth counts as inhibited. Read a high MIC as weaker potency. Regarding `CNC1CC2OC(C)(C1OC)n1c3ccccc3c3c4c(c5c6ccccc6n2c5c31)C(=O)NC4O` (stereo not drawn) [UCN-01], the MIC is 83 µg/mL (≈ 172 µM) in data set [3]; 83 µg/mL (≈ 172 µM) in data set [4]; 83 µg/mL (≈ 172 µM) with Escherichia coli ATCC 26; above 100 µg/mL in [5]; 100 µg/mL (≈ 207 µM) in data set [6]; 83 µg/mL (≈ 172 µM) in [7]. The LD50 in [8] stood at 30 mg/kg. Besides, the “Increased Life Span (T/C)” value is 1.12 in [2] (7.5 mg/kg, intraperitoneal, 24 hours after implantation) and 1.24 in [2] (15 mg/kg, intraperitoneal, 24 hours after implantation). Moreover, the “Increased Life Span (T/C): toxic” value in [2] (30 mg/kg, intraperitoneal, 24 hours after implantation) was “toxic”. Also, the “anti-tumor activity as compared with staurosporine” value in data set [2] (comparison with staurosporine, in words) was “superior anti-tumor activity”.
